Reference: patent publication US20080031955A1, “Product Comprising a Beta-Lactam Antibiotic” (priority 2004, published 2008)

Assays:
Assay type in all cases: physicochemical
[1] = Color C400 measured at 400 nm (Ph. Eur.); settings: color measured at a wavelength of 400 nm
Description: In a preferred embodiment, the product according to the invention has a C400≦0.20, wherein C400 is the color measured at a wavelength of 400 nm (Ph.Eur.). Preferably, the product has a C400≦0.15, preferably a C400≦0.10.

[2] = Acetone content of the dried product by gas chromatography
Protocol: The acetone content or concentration of organic solvent may be determined in any suitable manner, e.g. by gas chromatography.
The acetone content of the dried product was analysed using a Hewlett-Packard Gas Chromatograph, model 5890. As a sample solution was used a solution obtained by dissolving 0.500 g of product in 10.0 ml of water (with the aid of some drops of NaOH 1 N). As a standard (reference) solution was used a solution obtained by dissolving 0.5 g of acetone standard in 50.0 ml of water, from which 1.0 ml was taken and diluted with 50.0 ml water.

[3] = Water content (Karl Fisher) of the dried product; settings: after drying
Protocol: The wet cake was fluidised with air at ambient temperature during 15 to 30 minutes, after which it was fluidised with warm air (30-40° C.) during 45 to 75 minutes (air flow 1800 m^3/hr), until the water content was 5.2 wt. % (Karl Fisher).
(product temperature 40° C.). The final pressure was 20 mbar. […] The water content was 5.2 wt. % (Karl Fisher).

SMILES	C400 (Ph. Eur.) [1]	Acetone content ([2]; dried cephalexin product) [mg/kg]	Acetone content ([2]; dried product, fluid bed dryer)	water content (Karl Fisher) [3] [wt. %]
CC1=C(C(=O)O)N2C(=O)[C@@H](NC(=O)[C@H](N)c3ccccc3)[C@H]2SC1 [Comparative experiment A, cephalexin]	0.025	500	500 mg of acetone per kg of cephalexin	5.2
CC1=C(C(=O)O)N2C(=O)[C@@H](NC(=O)[C@H](N)c3ccccc3)[C@H]2SC1.O [Example I, cephalexin]	0.026	10	–	5.2
